In US12187728B2 (Raze Therapeutics, Inc., priority 2015, dated 2025):

What follows are compounds tested against T1, Human MTHFD2 (Homo sapiens, UniProt P13995) (assay: MTHFD2 Activity Assay (dehydrogenase activity, diaphorase/resazurin coupled fluorescence)). Conditions: inhibitory activity (IC50 and/or binding constant); 0.2 nM MTHFD2, 11 concentrations.
T1 construct: residues 36-350 in Uniport ID P13995; His6 (N); made in house; host or cells: E. coli
T1 sequence (P13995 36-350): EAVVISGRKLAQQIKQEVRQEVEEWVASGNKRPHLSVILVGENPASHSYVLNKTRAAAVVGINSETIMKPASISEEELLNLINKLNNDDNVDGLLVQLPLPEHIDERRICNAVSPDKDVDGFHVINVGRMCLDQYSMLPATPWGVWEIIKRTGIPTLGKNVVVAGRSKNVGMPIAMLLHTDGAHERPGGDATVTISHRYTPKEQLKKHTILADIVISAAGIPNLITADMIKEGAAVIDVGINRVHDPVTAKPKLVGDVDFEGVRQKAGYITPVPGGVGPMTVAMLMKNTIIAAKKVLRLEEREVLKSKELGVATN
Type: biochemical
Outline: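 Resorufin fluorescence (ex 525, em 598 nm) reports NADH formed by the dehydrogenase via diaphorase coupling. Enzyme (0.2 nM, residues 36-350, N-His6) sat with compound 15 min before 70 μM CH2-THF and 1 mM NAD+ started a 30 min reaction. IC50s come from 4-parameter fits over 11 concentrations.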

Cn1c(N[C@@H]2CC[C@H](CO)C2)nc2c1c(=O)n(Cc1ccc(Cl)c(Cl)c1)c(=O)n2C [Example 276, 1-(3,4-dichlorobenzyl)-8-((1R,3S)-3-(hydroxymethyl)cyclopentylamino)-3,7-dimethyl-1H-purine-2,6(3H,7H)-dione] and Cn1c(NCC(F)(F)F)nc2c1c(=O)n(Cc1ccc(Cl)c(Cl)c1)c(=O)n2C [Example 278, 1-[(3,4-dichlorophenyl)methyl]-3,7-dimethyl-8-(2,2,2-trifluoroethylamino)purine-2,6-dione] fall in the same range of IC50: 10 to 1000 nM for the first, 10 to 1000 nM for the second.

Cn1c(Nc2ccnc(CCC(=O)O)c2)nc2c1c(=O)n(Cc1ccc(Cl)c(Cl)c1)c(=O)n2C [Example 277, 3-(4-(1-(3,4-dichlorobenzyl)-3,7-dimethyl-2,6-dioxo-2,3,6,7-tetrahydro-1H-purin-8-ylamino)pyridin-2-yl)propanoic acid] and Cn1c(Nc2ccnc(CCC(N)=O)c2)nc2c1c(=O)n(Cc1ccc(Cl)c(Cl)c1)c(=O)n2C [Example 283, 3-(4-(1-(3,4-dichlorobenzyl)-3,7-dimethyl-2,6-dioxo-2,3,6,7-tetrahydro-1H-purin-8-ylamino)pyridin-2-yl)propanamide] fall in the same range of IC50: 10 to 1000 nM for the first, 10 to 1000 nM for the second.

First: Cn1c(Nc2cc(CCC(=O)O)ccn2)nc2c1c(=O)n(Cc1ccc(Cl)c(Cl)c1)c(=O)n2C [Example 281, 3-(2-(1-(3,4-dichlorobenzyl)-3,7-dimethyl-2,6-dioxo-2,3,6,7-tetrahydro-1H-purin-8-ylamino)pyridin-4-yl)propanoic acid]
Second: Cn1c(Nc2cccc(CCC(=O)O)c2)nc2c1c(=O)n(Cc1ccc(Cl)c(Cl)c1)c(=O)n2C [Example 291, 3-(3-(1-(3,4-dichlorobenzyl)-3,7-dimethyl-2,6-dioxo-2,3,6,7-tetrahydro-1H-purin-8-ylamino)phenyl)propanoic acid]
The IC50 of the first is higher: 1000 to 5000 nM for the first, 10 to 1000 nM for the second.

Cn1c(Nc2cccc(CCC(=O)O)n2)nc2c1c(=O)n(Cc1ccc(Cl)c(Cl)c1)c(=O)n2C [Example 282, 3-(6-(1-(3,4-dichlorobenzyl)-3,7-dimethyl-2,6-dioxo-2,3,6,7-tetrahydro-1H-purin-8-ylamino)pyridin-2-yl)propanoic acid] and Cn1c(Nc2cccc(CC(=O)O)c2)nc2c1c(=O)n(Cc1ccc(Cl)c(Cl)c1)c(=O)n2C [Example 287, 2-(3-((1-(3,4-dichlorobenzyl)-3,7-dimethyl-2,6-dioxo-2,3,6,7-tetrahydro-1H-purin-8-yl)amino)phenyl)acetic acid] fall in the same range of IC50: 10 to 1000 nM for the first, 10 to 1000 nM for the second.

Cn1c(Nc2ccncc2)nc2c1c(=O)n(Cc1cc3c(Cl)cccc3[nH]1)c(=O)n2C [Example 285, 1-((4-chloro-1H-indol-2-yl)methyl)-3,7-dimethyl-8-(pyridin-4-ylamino)-1H-purine-2,6(3H,7H)-dione] and Cn1c(Nc2cccc(C(=O)O)c2)nc2c1c(=O)n(Cc1ccc(Cl)c(Cl)c1)c(=O)n2C [Example 286, 3-((1-(3,4-dichlorobenzyl)-3,7-dimethyl-2,6-dioxo-2,3,6,7-tetrahydro-1H-purin-8-yl)amino)benzoic acid] fall in the same range of IC50: 10 to 1000 nM for the first, 10 to 1000 nM for the second.

Cn1c(Nc2ccc(CC(=O)O)cc2)nc2c1c(=O)n(Cc1ccc(Cl)c(Cl)c1)c(=O)n2C [Example 288, 2-(4-((1-(3,4-dichlorobenzyl)-3,7-dimethyl-2,6-dioxo-2,3,6,7-tetrahydro-1H-purin-8-yl)amino)phenyl)acetic acid] and Cn1c(N[C@H]2C[C@H](C(=O)O)C2)nc2c1c(=O)n(Cc1cc3ccccc3[nH]1)c(=O)n2C [Example 289, (1R,3R)-3-(1-((1H-indol-2-yl)methyl)-3,7-dimethyl-2,6-dioxo-2,3,6,7-tetrahydro-1H-purin-8-ylamino)cyclobutanecarboxylic acid] fall in the same range of IC50: 10 to 1000 nM for the first, 10 to 1000 nM for the second.

Cn1cnc2c1c(=O)n(Cc1cc3cccnc3[nH]1)c(=O)n2C [Example 290, 1-((1H-pyrrolo[2,3-b]pyridin-2-yl)methyl)-3,7-dimethyl-1H-purine-2,6(3H,7H)-dione] was tested, and the IC50 was 5000 to 10000 nM.
